Experimental data taken from US4423029A, “(S)-3-Amino-4-[(S,S)-1-(1-hydroxyethyl)alkyl amino]-4-oxo-butyric acid compounds suitable as non-nutritive sweetners” (The Procter & Gamble Company, priority 1981, dated 1983).
Values after ≈ are worked out from the molar mass of the structure shown. “Also recorded” adds a separate entry of the source. Like-named read-outs stand apart in the source and are kept apart here. Residues, ends and D or L forms follow the SMILES beside them.

Key:
[1] = Hydrolytic stability in aqueous phosphate buffer; assay type: physicochemical; details: for remaining at 360 h / half-life: 0.02 m phosphate buffer; for remaining at 360 h: read-out: % Remaining After 15 Days; for half-life: 0.02 M phosphate
Protocol: Stability tests were performed on the compound of formula (II) to determine the sweetener's resistance to hydrolysis under varying conditions.
The tests were performed using solutions of (II) in aqueous phosphate buffer, 0.02 M, at pH 3.5 and 6.9. The solutions were incubated at ~43° C. (110° F.), ~54° C. (130° F.), and ~66° C., (150° F.) for up to 32 days.
Samples from the test solutions were withdrawn at regular intervals and analyzed by reversed-phase high performance liquid chromatography for remaining intact (II), using the following conditions:
Column: 25 cm×0.4 cm I.D. stainless steel packed with Lichrosorb RP-18, 5μ particle size.
Mobile phase: Acetonitrile/0.01 M phosphate buffer (155/845 v/v), pH 6.
Detection: UV absorbance at 220 nm (~2200 Å). Results were quantified by comparison with standard solutions kept frozen during the tests. Peak heights were measured for replicate injections.
By use of the Arrhenius equation, [formula] where k is the specific reaction velocity, T is the absolute temperature (°K.), A is the activation energy constant, t is time, and R is the gas law constant, change in the rate of a first-order chemical reaction with temperature can be calculated. The half-life of (II) at ambient temperature and pH 6.9 is estimated to be 760 days (>2 yrs).

[2] = Amide bond cleavage by rat intestine homogenate; assay type: in vitro ADME; details: pH 7.0, 37° C., up to two hours, standardized to Aspartame/rat = 100
Excerpt: (§1) This aspartic acid has the same caloric value as sugar, on a per-gram basis. These aspartic acid amide sweeteners are therefore not non-nutritive, but, rather, low calorie. In addition, the other molecular fragment released as a result of amide cleavage is frequently a non-physiological amine. It was therefore considered appropriate to gauge the rate of amide cleavage of compound (II) by digestive enzymes in evaluating both the calorigenic and the toxicologic potential of compounds of this invention.
(§2) Assays were performed in the following manner:
(§3) Aliquots of four mM solutions of test compounds in 100 mM potassium phosphate buffer solution at pH 7.0 were incubated at 37° C. (98.6° F.) for up to two hours with a standardized amount of animal intestine homogenate containing digestive enzymes. At the end of the incubation period, the enzymes were inactivated by boiling and the extent of amide bond hydrolysis was quantified by measurement of free L-aspartic acid in the solution. This was done by incubating a sample of the test solution with enzymes and substrates that convert L-aspartate to L-malate with concomitant oxidation of a pyridine nucleotide having a characteristic absorbance at 340 nanometers. The decrease in optical density at this wavelength is proportional to the amount of L-aspartate generated by amide bond hydrolysis.

[3] = Amide bond cleavage by monkey intestine homogenate; assay type: in vitro ADME; details: pH 7.0, 37° C., up to two hours, standardized to Aspartame/rat = 100
Excerpt: as §1, §2, §3

[4] = cited from earlier work; for taste: in words; for sweetness intensity: L-aspartic acid alkyl amides, Mazur et al. 1970
[5] = in words; cited from earlier work
[6] = cited from earlier work; for half-life: pH 4
[7] = in words; cited from earlier work; remark: listed apart in the source
[8] = Taste evaluation (human taste panel, comparison with sucrose standards); assay type: in vivo, Male subjects; details: for taste / sweetness quality: in words
Protocol: The taste quality and sweetness intensity of the compounds of the present invention were determined by the following procedure.
Male subjects were selected at random from a group of about 20 persons who had previously been selected on the basis of proven tasting acuity, i.e., persons who could easily recognize the four basic tastes (sweet, sour, bitter and salty) and who were adept at quantifying their own physiological response numerically. The subjects were asked to taste and expectorate about 10 ml of a sample at about 22° C. containing dissolved test material. The subjects were then asked to compare the sweetness (and other taste qualities) of the test solution with four or five standard coded samples which contained increasing amounts of sucrose. Sweetness intensity of the unknown material was recorded by the subject making a mark on a coded closed linear scale at a point they considered equal in sweetness among the standards; interpolation between standards was encouraged. After completion of the panel, a four or five point (1-4 or 1-5, depending on the number of standards) numeric scale was superimposed on the coded linear scales to obtain numerical data; data were averaged and recorded to the nearest 0.25 unit. Equivalent sucrose sweetness was determined by referring to graphs of (w/v) sucrose concentration and standards versus a linear numeric scale.
Sweetness intensity was calculated by dividing the concentration (w/v) of perceived sweetness by the concentration (w/v) of test material required to produce that sweetness. Most taste comparisons were made in the range of 5-10% sucrose sweetness.
The five point scale with standards ranging from 1.37% (0.040 M) to 11.97% (0.35 M) sucrose usually sufficed to bracket the sweet intensity of a test sample. However, in the cases of beverage prototypes it was more meaningful to use prototype beverage solutions containing 2.5, 5.0, 10.0, 15.0 and 20.0% sucrose as standards. In all cases, evaluation of sweetness intensity in terms of sucrose equivalents was made with reference to graphs which related sucrose concentration and standard prototypes to the particular (arbitrary) scale units employed.
In tests in which taste quality was estimated, the subjects were asked to describe the initial taste and aftertaste in terms of percent sweet, sour, bitter, salty and "other", totalling 100%. In all tests, bottled spring water was used for rinsing between samples.

[9] = Aqueous solubility and calculated maximum effective sweetening power; assay type: physicochemical; details: for solubility / Calculated Maximum Effective Sweetening Power: approximate (~)
Protocol: The solubility of compound (II) was determined in standard fashion. Water at pH 7 and 20° C. was used, except where indicated.
Because sweetness tends to plateau at higher concentrations of high intensity sweeteners, these calculations overestimate the actual sweetening power of the compounds of this invention.

[10] = Resistance to hydrolysis by digestive enzymes (statement in words); assay type: in vitro ADME, animal
Excerpt: as §1, §2
as §3, with “hydrolysis. […]” for “hydrolysis.”

[11] = pH 3.5, .02M Phosphate Buffer at 54° C.
[12] = pH 7, .02M Phosphate Buffer at 54° C.

Q: For CC(C)CCC(CO)NC(=O)[C@@H](N)CC(=O)O (some centres unmarked), which remaining at 360 h [1, 11] is on record?
A: 88%

Q: And the remaining at 360 h [1, 12]?
A: 72%

Q: For N[C@@H](CC(=O)O)C(=O)N[C@H](CO)Cc1ccccc1, which “Relative rate of amide bond cleavage” value [2] is on record?
A: 19

Q: Which “Relative rate of amide bond cleavage” value [2] does the source give for CC(C)C[C@@H](CO)NC(=O)[C@@H](N)CC(=O)O here?
A: 11

Q: Which “Relative rate of amide bond cleavage” value [2] does the source give for CC(C)CC[C@@H](CO)NC(=O)[C@@H](N)CC(=O)O here?
A: 35

Q: What about the “Relative rate of amide bond cleavage” value [3] of the same compound?
A: 103

Q: For CCCCCC(CO)NC(=O)[C@@H](N)CC(=O)O (some centres unmarked), which “Relative rate of amide bond cleavage” value [2] is on record?
A: 35

Q: Which “Relative rate of amide bond cleavage” value [2] does the source give for CC(C)CCCC(C)NC(=O)[C@@H](N)CC(=O)O (some centres unmarked) here?
A: 38

Q: What about the “Relative rate of amide bond cleavage” value [3] of the same compound?
A: 68

Q: For N[C@@H](CC(=O)O)C(=O)Nc1ccc2ccccc2c1, which “Relative rate of amide bond cleavage” value [2] is on record?
A: 4

Q: Which taste [4] does the source give for CC(C)CC(C)NC(=O)[C@@H](N)CC(=O)O (some centres unmarked) [1,3-dimethylbutyl] here?
A: bitter

Q: What does the source list for CCC(C)CC(C)NC(=O)[C@@H](N)CC(=O)O (some centres unmarked) [1,3-dimethylpentyl]?
A: sweetness intensity [4]: 1-2 X sucrose; taste [4]: sweet

Q: For CC(C)CCC(C)NC(=O)[C@@H](N)CC(=O)O (some centres unmarked) [1,4-dimethylpentyl], which sweetness intensity [4] is on record?
A: 50-100 X sucrose

Q: And the taste [4]?
A: sweet

Q: Which pharmacological activity [5] does the source give for CC(C)CCCC(C)N (centres unmarked) [1,5-dimethylhexylamine] here?
A: vasopressor and myocardial stimulant activity

Q: Which taste [4] does the source give for CCCC(C)NC(=O)[C@@H](N)CC(=O)O (some centres unmarked) [1-methylbutyl] here?
A: tasteless

Q: What does the source list for CCCCCCC(C)NC(=O)[C@@H](N)CC(=O)O (some centres unmarked) [1-methylheptyl]?
A: sweetness intensity [4]: 10 X sucrose; taste [4]: sweet

Q: What does the source list for CCCCCC(C)NC(=O)[C@@H](N)CC(=O)O (some centres unmarked) [1-methylhexyl]?
A: sweetness intensity [4]: 20-50 X sucrose; taste [4]: sweet

Q: Which results are given for CCCCC(C)NC(=O)[C@@H](N)CC(=O)O (some centres unmarked) [1-methylpentyl]?
A: sweetness intensity [4]: 30 X sucrose; taste [4]: sweet

Q: Which taste [4] does the source give for CC(C)CCCNC(=O)[C@@H](N)CC(=O)O [4-methylpentyl] here?
A: tasteless

Q: Which taste [4] does the source give for COC(=O)[C@H](Cc1ccccc1)NC(=O)[C@@H](N)CC(=O)O [Aspartame, L-aspartyl-L-phenylalanine methyl ester] (H-Asp-Phe-OMe) here?
A: high quality sweetness; also recorded: free of unpleasant aftertaste

Q: What about the half-life ([6]; 40° C.) of the same compound?
A: 68 days

Q: What about the half-life ([6]; 55° C.) of the same compound?
A: 16 days

Q: What about the “stability in aqueous media” value ([6]; in words) of the same compound?
A: hydrolyzes rapidly in aqueous media to non-sweet compounds

Q: And the “% Remaining After 15 Days” value ([6]; pH 3.5, 54° C., comparable data from literature)?
A: 50%

Q: And the “% Remaining” value ([6]; pH 7, 54° C., at 1 day, comparable data from literature)?
A: 0%

Q: What about the “hydrolysis by gut enzymes” value [7] of the same compound?
A: readily converted to L-aspartic acids by enzymes in the gut

Q: What about the “Relative rate of amide bond cleavage” value [2] of the same compound?
A: 100

Q: And the “Relative rate of amide bond cleavage” value [3]?
A: 157

Q: Which taste [4] does the source give for CCCC(CC)NC(=O)[C@@H](N)CC(=O)O (some centres unmarked) [Compound 1-ethylbutyl] here?
A: bitter

Q: With CC(C)CC[C@H](NC(=O)[C@@H](N)CC(=O)O)[C@H](C)O [Compound II, (S)-3-amino-4-[(S,S)-1-(1-hydroxyethyl)-4-methyl-pentylamino]-4-oxo-butyric acid] as the compound, how does the “sweetness intensity” value ([8]; Lemonade) read?
A: 85 × sucrose

Q: What about the “sweetness intensity” value ([8]; Water) of the same compound?
A: 60 × sucrose

Q: What about the “sweetness relative to sucrose” value ([8]; at an 8% sucrose sweetness level) of the same compound?
A: approximately 60 times

Q: And the “taste / sweetness quality” value [8]?
A: sweetness quality comparable to sucrose; also recorded: sweet in both aqueous solution and granular form

Q: And the “taste / sweetness quality” value ([8]; listed as (S,S,S) compound)?
A: sweet

Q: And the solubility ([9]; Water, pH 7, 20° C.)?
A: 30 to 40 mg/mL (≈ 115 to 154 mM)

Q: What about the “Calculated Maximum Effective Sweetening Power” value ([9]; Water) of the same compound?
A: 180-240 g % sucrose equivalent

Q: What about the solubility in water ([9]; in words) of the same compound?
A: surprisingly soluble in water

Q: What about the “Calculated Maximum Effective Sweetening Power” value ([9]; lemonade) of the same compound?
A: 255-340 g % sucrose equivalent

Q: And the solubility ([9]; lemonade, ditto mark)?
A: 30 to 40 mg/mL (≈ 115 to 154 mM)

Q: And the “resistance to enzymatic hydrolysis” value [10]?
A: resistant to enzymatic hydrolysis

Q: And the half-life ([1]; pH 3.5, 54° C., pH start 3.5 (end 4.3))?
A: 57 days

Q: What about the half-life ([1]; pH 3.5, 66° C., pH start 3.5 (end 4.8)) of the same compound?
A: 17 days

Q: And the half-life ([1]; pH 6.9, 43° C., pH start 6.9 (end 6.8))?
A: 148 days

Q: What about the half-life ([1]; pH 6.9, 54° C., pH start 6.9 (end 6.09)) of the same compound?
A: 64 days

Q: What about the half-life ([1]; pH 6.9, 66° C., pH start 6.9 (end 7.5)) of the same compound?
A: 22 days

Q: What about the remaining at 360 h [1, 11] of the same compound?
A: 82%

Q: And the remaining at 360 h [1, 12]?
A: 86%

Q: And the “stability in aqueous media” value ([1]; in words)?
A: stable in moderately alkaline, neutral and moderately acidic aqueous media

Q: And the “reaction order of hydrolysis” value ([1]; log (% (II) intact) versus time)?
A: consistent with a reaction following first order kinetics

Q: And the “Relative rate of amide bond cleavage” value [2]?
A: 0

Q: What about the “Relative rate of amide bond cleavage” value [3] of the same compound?
A: 0

Q: Which taste [4] does the source give for COc1ccc(CCC(=O)c2c(O)cc(O[C@@H]3O[C@H](CO)[C@@H](O)[C@H](O)[C@H]3O[C@@H]3O[C@@H](C)[C@H](O)[C@@H](O)[C@H]3O)cc2O)cc1O [Neohesperidin dihydrochalcone] here?
A: the sweetness is slow to develop and it has a licorice-like aftertaste

Q: Which sweetness intensity [4] does the source give for CCCCCCCNC(=O)[C@@H](N)CC(=O)O [heptyl] here?
A: 1-2 X sucrose

Q: And the taste [4]?
A: sweet

Q: Which results are given for CCCCCCNC(=O)[C@@H](N)CC(=O)O [hexyl]?
A: sweetness intensity [4]: 1-2 X sucrose; taste [4]: sweet

Q: With O=C1NS(=O)(=O)c2ccccc21 [saccharin] as the compound, how does the taste [4] read?
A: bitter aftertaste
